Laboratory results from publication PMC5343222, “Inhibitory Activities of Stauntonia hexaphylla Leaf Constituents on Rat Lens Aldose Reductase and Formation of Advanced Glycation End Products and Antioxidant” (BioMed Research International, 2017).

Legend:
[1] = system: advanced glycation end products (AGEs) formation; experiment: Bovine serum albumin-methylglyoxal assay on AGEs formation; assay type: biochemical; details: BSA 50 mg/mL + methylglyoxal 100 mM, 37°C, 24 h; mean ± SEM
Method: Bovine serum albumin (50 mg/mL) was incubated with methylglyoxal (100 mM) in sodium phosphate buffer (0.1 M, pH 7.4) in the presence of various concentrations of the compounds (including a control) at 37°C for 24 h. Then the fluorescent intensity was measured at an excitation wavelength of 355 nm and an emission wavelength of 460 nm with a luminescence spectrometer LS50B (Perkin-Elmer Ltd., Buckinghamshire, England). […] All reagents and samples were sterilized by filtration through […] membrane filters.

[2] = target: T1, rat lens aldose reductase (RLAR) (Rattus norvegicus, UniProt P07943); experiment: In vitro determination of RLAR inhibition (NADPH decrease at 340 nm, DL-glyceraldehyde substrate); assay type: biochemical; details: crude RLAR from Sprague-Dawley rat lenses; mean ± SEM, three independent experiments in duplicate
T1 construct: the supernatant was collected and used as the RLAR; from tissue; host or cells: lens of Sprague-Dawley rats (crude homogenate supernatant)
Method: Crude RLAR was prepared as follows: lenses […] were removed from Sprague-Dawley rats and frozen at −70°C until use. Noncataractous transparent lenses were pooled and a homogenate was prepared in 0.1 M phosphate buffer saline (pH 6.2). RLAR homogenate was then centrifuged at 9600 ×g for 20 min. After centrifugation in a refrigerated centrifuge, the supernatant was collected and used as the RLAR. All procedures were carried out at 4°C [10].
RLAR activity was assayed spectrophotometrically by measuring the decrease in the absorption of NADPH at 340 nm over a 4 min period using DL-glyceraldehyde as the substrate. Each 1.0 mL cuvette contained equal units of the enzyme, 0.1 M sodium phosphate buffer (pH 6.2), 0.3 mM NADPH, with or without 10 mM of the substrate, and an inhibitor [11].

[3] = DPPH radical scavenging assay; details: for IC50: 15 min incubation in the dark, mean ± SEM; for inhibitory effect on DPPH (in words): at the same concentration when compared to other compounds
Method: The stable free radical, DPPH, was used to determine the free radical scavenging activity of the SHL extracts. Briefly, a 0.32 mM solution of DPPH in methanol was prepared, and then 180 µl of this solution was mixed with 30 µl of each sample (1.0 to 5.0 mg/mL in methanol). After 15 min of incubation in the dark, the decrease in the absorbance of the solution was measured at 570 nm on a microplate reader (EL800 Universal Microplate reader, Bio-Tek instruments, Winooski, VT, USA).

N=C(N)NN [Aminoguanidine, aminoguanidine, reference compound]
IC50 [1]: 820 ± 79.4 µM
IC50 AGEs [1]: 90.70 ± 8.71 µg/mL

O=C(O)CCc1ccc(O)c(O)c1 [Compound 1, 3-(3,4-dihydroxyphenyl)-propionic acid]
IC50 [2]: > 1000 µM
IC50 [1]: 184 ± 17.6 µM
IC50 [3]: 110 ± 9.39 µM

O=C(/C=C/c1ccc(O)c(O)c1)O[C@@H]1C[C@](O)(C(=O)O)C[C@@H](O)[C@H]1O [Compound 2, chlorogenic acid]
IC50 [2]: 8.35 ± 0.45 µM
IC50 [1]: > 1000 µM

O=C(/C=C/c1ccc(O)c(O)c1)OC[C@H]1O[C@@H](OCCc2ccc(O)c(O)c2)[C@H](O)[C@@H](O)[C@@H]1O [Compound 4, calceolarioside B]
IC50 [2]: 24 ± 2.3 µM
IC50 [1]: > 1000 µM
IC50 [3]: 94.6 ± 6.86 µM

O=c1cc(-c2ccc(O)c(O[C@@H]3O[C@H](CO)[C@@H](O)[C@H](O)[C@H]3O)c2)oc2cc(O)cc(O)c12 [Compound 5, luteolin-3′-O-β-D-glucopyranoside]
IC50 [2]: 7.34 ± 0.35 µM
IC50 [1]: 118 ± 11.5 µM
IC50 [3]: 96.3 ± 9.19 µM

O=c1c(O[C@@H]2O[C@H](CO)[C@@H](O)[C@H](O)[C@H]2O)c(-c2ccc(O)c(O)c2)oc2cc(O)cc(O)c12 [Compound 6, quercetin-3-O-β-D-glucopyranoside]
IC50 [2]: 10.4 ± 1.38 µM
IC50 [1]: > 1000 µM
IC50 [3]: 122 ± 10.9 µM

O=c1cc(-c2ccc(O)c(O)c2)oc2cc(O[C@@H]3O[C@H](CO)[C@@H](O)[C@H](O)[C@H]3O)cc(O)c12 [Compound 7, luteolin-7-O-β-D-glucopyranoside]
IC50 [2]: 16.1 ± 1.2 µM
IC50 [1]: > 1000 µM
IC50 [3]: > 1000 µM
inhibitory effect on DPPH (in words) [3]: no an inhibitory effect

O=C1O[C@H]([C@@H](O)CO)C(O)=C1O [L-ascorbic acid, reference compound]
IC50 [3]: 54.4 ± 5.73 µM

O=c1cc(-c2ccc(O)c(O[C@@H]3O[C@H](CO)[C@@H](O)[C@H](O)[C@H]3O)c2)oc2cc(O)cc(O)c12 [luteolin-3′-O-β-D-glucopyranoside]
IC50 [2]: 7.34 to 24 µM

O=c1cc(-c2ccc(O)c(O)c2)oc2cc(O[C@@H]3O[C@H](CO)[C@@H](O)[C@H](O)[C@H]3O)cc(O)c12 [luteolin-7-O-β-D-glucopyranoside]
IC50 [2]: 7.34 to 24 µM

O=c1c(O[C@@H]2O[C@H](CO)[C@@H](O)[C@H](O)[C@H]2O)c(-c2ccc(O)c(O)c2)oc2cc(O)cc(O)c12 [quercetin-3-O-β-D-glucopyranoside]
IC50 [2]: 7.34 to 24 µM

neochlorogenic acid [Compound 3]
IC50 [2]: 72 ± 25.8 µM
IC50 [1]: 115 ± 10.5 µM
IC50 [3]: > 1000 µM
inhibitory effect on DPPH (in words) [3]: no an inhibitory effect
